The source of these data is patent US5703097A, “5-pyrrolyl-2-pyridylmethylsulfinyl benzimidazole derivatives” (priority 1994, dated 1997).

Molecules are shown by their SMILES. Counter-ions that a name gives are not always drawn. Bounds are passed on as bounds.

For test [1], the target named is T1, H^+ /K^+ -ATPase (Oryctolagus cuniculus, UniProt P27112).
T1 construct: The gastric mucous membrane was removed from a rabbit; from tissue; host or cells: rabbit gastric mucosa, microsomal fraction (77,000 g)
As to the kind of experiment: Inhibition of enzyme activity: in vitro inhibition of H+/K+-ATPase (TEST 1). Type of test: biochemical, rabbit. Particulars: 5 min pre-incubation at 37° C., 4 mM ATP. The procedure:
In this test, omeprazole [5-methoxy-2-[[(4-methoxy-3,5-dimethyl-2-pyridinyl)methyl]sulfinyl]-1H-benzimidazole] was used as the control compound.
The gastric mucous membrane was removed from a rabbit and then centrifuged with 77,000 g using a ultra-centrifuge to separate the microsomal fraction which was used as the source of H^+ /K^+ -ATPase enzyme for this test. 60 μg of H^+ /K^+ -ATPase was pre-incubated with the sample (the compound according to the present invention) for 5 minutes at 37° C. and then 4 mM ATP as the substrate and 4 mM Mg^++, 20 mM K^+ as the cofactor were added thereto. Then, the amount of inorganic phosphorus thus produced was determined using a spectrophotometer at 660 nm and converted into the amount of protein. […]

The subject of test [2] is gastric acidity. Put plainly: Effect on inhibition of acidity (total acid output), in vivo, Shay method (TEST 2). The settings on record: for Volume (acidity, total acid output) / Inhibition rate, acidity: into duodenum, 5 hours; for Volume (acidity, total acid output): pylorus-ligated rats; for Inhibition rate, acidity: vs normal group. The arrangement: species or system rat (SD male rats). The procedure: (§1) The specific test methods are as follows.
(§2) SD male rats (200±20 g) were fasted for 24 hours, except for water, and then anesthesized with ether. The abdomen of rats was incised and then the pylorus was ligated. The test compounds were suspended or dissolved in 5% CMC (carboxymethylcellulose) and injected into duodenum. After the abdomen was sutured, the rats were allowed to stand for 5 hours and then sacrificed with ether. The stomach was removed from rats and the gastric juices were collected. The gastric juice was centrifuged with 10,000 xg for 10 minutes at 4° C. to remove the precipitate. The amount of gastric juice and acidity were determined using pH 7.0 end point assay with 0.02N NaOH and then the total acid output was calculated.

Test [3] relates to gastric juice secretion. Put plainly: Effect on inhibition of gastric juice secretion, in vivo, Shay method (TEST 2). Further details: species or system rat (SD male rats). Particulars: for Volume of gastric juice / Inhibition rate, gastric juice secretion: into duodenum, 5 hours; for Volume of gastric juice: pylorus-ligated rats; for Inhibition rate, gastric juice secretion: vs normal group. The procedure:
as §1, §2

The mark [4] stands for this setting: in words, even at a lower dose than that of the known anti-ulcer agent.

T1 sequence (P27112 2-1035 limits assumed): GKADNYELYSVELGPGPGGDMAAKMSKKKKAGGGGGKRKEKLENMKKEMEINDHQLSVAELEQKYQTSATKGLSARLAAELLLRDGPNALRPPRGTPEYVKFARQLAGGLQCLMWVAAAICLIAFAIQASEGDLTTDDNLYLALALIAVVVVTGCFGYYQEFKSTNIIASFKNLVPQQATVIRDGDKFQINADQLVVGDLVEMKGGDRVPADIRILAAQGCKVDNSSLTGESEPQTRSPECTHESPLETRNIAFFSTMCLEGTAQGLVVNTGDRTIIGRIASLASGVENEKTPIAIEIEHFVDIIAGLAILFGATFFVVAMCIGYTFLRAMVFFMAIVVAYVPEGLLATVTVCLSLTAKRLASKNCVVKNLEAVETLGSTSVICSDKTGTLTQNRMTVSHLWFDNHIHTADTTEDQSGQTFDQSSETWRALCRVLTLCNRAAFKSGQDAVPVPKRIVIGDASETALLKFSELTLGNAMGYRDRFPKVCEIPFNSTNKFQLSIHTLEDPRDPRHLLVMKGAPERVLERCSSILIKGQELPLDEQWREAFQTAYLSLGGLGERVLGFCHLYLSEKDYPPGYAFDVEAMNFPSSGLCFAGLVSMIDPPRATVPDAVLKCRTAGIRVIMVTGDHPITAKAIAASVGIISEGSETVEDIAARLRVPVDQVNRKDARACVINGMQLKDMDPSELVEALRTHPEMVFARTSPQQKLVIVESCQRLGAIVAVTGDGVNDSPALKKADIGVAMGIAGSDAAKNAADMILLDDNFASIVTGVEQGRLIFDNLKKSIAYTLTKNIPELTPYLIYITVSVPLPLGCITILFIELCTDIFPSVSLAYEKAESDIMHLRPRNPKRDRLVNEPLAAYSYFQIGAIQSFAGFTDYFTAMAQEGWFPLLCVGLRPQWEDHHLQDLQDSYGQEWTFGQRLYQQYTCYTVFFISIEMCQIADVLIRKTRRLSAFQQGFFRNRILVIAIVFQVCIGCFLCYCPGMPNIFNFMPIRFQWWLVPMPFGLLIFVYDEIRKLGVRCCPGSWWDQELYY
T1 sequence (P18597 whole entry partner): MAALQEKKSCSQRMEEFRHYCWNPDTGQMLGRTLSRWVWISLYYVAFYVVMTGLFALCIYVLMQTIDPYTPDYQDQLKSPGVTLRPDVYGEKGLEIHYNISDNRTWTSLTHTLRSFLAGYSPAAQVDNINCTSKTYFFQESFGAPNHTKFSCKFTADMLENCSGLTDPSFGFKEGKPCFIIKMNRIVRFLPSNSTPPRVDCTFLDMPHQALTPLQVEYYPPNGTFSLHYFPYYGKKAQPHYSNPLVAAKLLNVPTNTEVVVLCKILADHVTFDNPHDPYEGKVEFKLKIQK

As a reminder, the IC50 is the point on the concentration scale where inhibition reaches its midpoint. Higher therefore signals a need for much substance. Turning to `COc1ccnc(CSc2nc3cc(-n4cccc4)ccc3[nH]2)c1C` [Compound 1, 2-[[(4-methoxy-3-methyl)-2-pyridinyl]methylthio]-5-(1H-pyrrol-1-yl)-1H-benzimidazole], in test [1], the half-inhibitory concentration (IC50) is greater than 400 µM.
Still for that read-out and setting: as for `COc1ccnc(CS(=O)(=O)c2nc3cc(-n4cccc4)ccc3[nH]2)c1C` [Compound 3], the figure is greater than 400 µM; as for `COc1c(C)cnc(C[S+]([O-])c2nc3cc(-n4cccc4)ccc3[nH]2)c1C` (stereo not shown) [Compound 4], 210 µM.
With `COc1cc(C[S+]([O-])c2nc3cc(-n4cccc4)ccc3[nH]2)ncc1C` (stereo not shown) [Compound 5], in test [2] (10 mg/kg), the “Volume (acidity, total acid output)” value was 16.89 ± 4.06 μ Eq/hr and the “Inhibition rate, acidity” value is 70.60%. In addition, in test [2] (30 mg/kg), the “Volume (acidity, total acid output)” value came to 5.59 ± 2.22 μ Eq/hr and the “Inhibition rate, acidity” value is reported as 90.27%. In test [2] (in words), the “effect for lowering acidity” value is recorded as “good effects”. Further, the acidity lowering effect result in test [2] (setting [4]) is “high acidity lowering effect”. Further, in test [1], the concentration for half-maximal inhibition (IC50) came to 32 µM. Besides, in test [3] (10 mg/kg), the “Volume of gastric juice” value is recorded as 1.31 ± 0.23 ml/100 g BW and the “Inhibition rate, gastric juice secretion” value is recorded as 52.81%. In test [3] (30 mg/kg), the “Volume of gastric juice” value was 0.99 ± 0.16 ml/100 g BW and the “Inhibition rate, gastric juice secretion” value is 64.30%. Further, the “effect for inhibition of gastric acid secretion” value (“effect for inhibition” for short) in test [3] (in words) is given as “good effects”. For the same compound, the “inhibition of gastric juice secretion” value in test [3] (setting [4]) is recorded as “strong inhibition of gastric juice secretion”.
Compound `Cc1cnc(C[S+]([O-])c2nc3cc(-n4cccc4)ccc3[nH]2)cc1C` (stereo not shown) [Compound 6] had a half-maximal inhibitory concentration (IC50) in test [1] of roughly 400 µM.
On the same count and under the same terms, as for `Cc1ccnc(C[S+]([O-])c2nc3cc(-n4cccc4)ccc3[nH]2)c1` (stereo not shown) [Compound 7], the figure is greater than 400 µM.
Turning to `COc1ccnc(C[S+]([O-])c2nc3cc(-n4cccc4)ccc3[nH]2)c1` (stereo not shown) [Compound 8], in test [2] (10 mg/kg), the “Volume (acidity, total acid output)” value worked out at 14.29 ± 2.81 μ Eq/hr and the “Inhibition rate, acidity” value is listed as 60.81%. For the same compound, in test [2] (30 mg/kg), the “Volume (acidity, total acid output)” value is 2.92 ± 1.42 μ Eq/hr and the “Inhibition rate, acidity” value worked out at 91.99%. Further, the “effect for lowering acidity” value in test [2] (in words) was “good effects”. For the same compound, in test [1], the half-inhibitory concentration (IC50) is 91 µM. Besides, in test [3] (10 mg/kg), the “Volume of gastric juice” value amounted to 1.42 ± 0.24 ml/100 g BW and the “Inhibition rate, gastric juice secretion” value came to 28.85%. Also, in test [3] (30 mg/kg), the “Volume of gastric juice” value is listed as 0.87 ± 0.15 ml/100 g BW and the “Inhibition rate, gastric juice secretion” value is on record as 56.09%. Also, the “effect for inhibition” value in test [3] (in words) is “good effects”.
In the case of `CCOc1ccnc(C[S+]([O-])c2nc3cc(-n4cccc4)ccc3[nH]2)c1C` (stereo not shown) [Compound 9], in test [2] (10 mg/kg), the “Volume (acidity, total acid output)” value came to 11.84 ± 3.10 μ Eq/hr and the “Inhibition rate, acidity” value is recorded as 56.66%. Also, in test [2] (30 mg/kg), the “Volume (acidity, total acid output)” value was found to be 3.80 ± 1.54 μ Eq/hr and the “Inhibition rate, acidity” value is recorded as 86.09%. Further, in test [2] (in words), the “effect for lowering acidity” value is “good effects”. The same compound gave an IC50 in test [1] of 64 µM. Further, in test [3] (10 mg/kg), the “Volume of gastric juice” value is 1.50 ± 0.15 ml/100 g BW and the “Inhibition rate, gastric juice secretion” value came out at 36.04%. Also, in test [3] (30 mg/kg), the “Volume of gastric juice” value is 1.14 ± 0.12 ml/100 g BW and the “Inhibition rate, gastric juice secretion” value is reported as 51.46%. In addition, the “effect for inhibition” value in test [3] (in words) is “good effects”.
The compound `CCc1cnc(C[S+]([O-])c2nc3cc(-n4cccc4)ccc3[nH]2)cc1OC` (stereo not shown) [Compound 10] displayed an IC50 in test [1] of 8.8 µM.
On the same count and under the same terms, as for `[O-][S+](Cc1ccccn1)c1nc2cc(-n3cccc3)ccc2[nH]1` (stereo not shown) [Compound 11], the figure is greater than 400 µM; as for `Cc1cnc(C[S+]([O-])c2nc3cc(-n4cccc4)ccc3[nH]2)c(C)c1` (stereo not shown) [Compound 12], 85 µM.
`Cc1c(OCC(F)(F)F)ccnc1C[S+]([O-])c1nc2cc(-n3cccc3)ccc2[nH]1` (stereo not shown) [Compound 13, 2-[[(4-(2,2,2-trifluoroethoxy)-3-methyl)-2-pyridinyl]methylsulfinyl]-5-(1H-pyrrol-1-yl)-1H-benzimidazole]: the IC50 in test [1] came out at 100 µM.
Same read-out and setting: for `Cc1c(OCC(F)(F)C(F)(F)F)ccnc1C[S+]([O-])c1nc2cc(-n3cccc3)ccc2[nH]1` (stereo not shown) [Compound 14, 2-[[(4-(2,2,3,3,3-pentafluoropropoxy)-3-methyl)-2-pyridinyl]methylsulfinyl]-5-(1H-pyrrol-1-yl)-1H-benzimidazole] the value was greater than 400 µM; for `COc1ccnc(C[S+]([O-])c2nc3cc(-n4c(C)ccc4C)ccc3[nH]2)c1C` (stereo not shown) [Compound 15, 2-[[(4-methoxy-3-methyl)-2-pyridinyl]methylsulfinyl]-5-(1H-2,5-dimethylpyrrol-1-yl)-1H-benzimidazole], 33 µM.
Regarding `COc1ccnc(C[S+]([O-])c2nc3cc(-n4cccc4)ccc3[nH]2)c1C` (stereo not shown) [Compound 16, 2-[[(4-methoxy-3-methyl)-2-pyridinyl]methylsulfinyl]-5-(1H-pyrrol-1-yl)-1H-benzimidazole sodium salt], the “Volume (acidity, total acid output)” value in test [2] (3 mg/kg, sodium salt) is 22.59 ± 2.88 μ Eq/hr; in test [2] (10 mg/kg, sodium salt), 10.99 ± 3.05 μ Eq/hr; in test [2] (30 mg/kg, sodium salt) it was 1.98 ± 1.21 μ Eq/hr. Besides, the “Inhibition rate, acidity” value in test [2] (3 mg/kg, sodium salt) is 70.05%; in test [2] (10 mg/kg, sodium salt), 85.43%; in test [2] (30 mg/kg, sodium salt), 97.37%. The “effect for lowering acidity” value in test [2] (in words) is “good effects”. This compound showed a concentration for half-maximal inhibition (IC50) in test [1] of 28 µM. Further, the “Volume of gastric juice” value stood at 2.05 ± 0.16 ml/100 g BW in test [3] (3 mg/kg, sodium salt); 1.35 ± 0.12 ml/100 g BW in test [3] (10 mg/kg, sodium salt); 1.17 ± 0.20 ml/100 g BW in test [3] (30 mg/kg, sodium salt). Also, the “Inhibition rate, gastric juice secretion” value in test [3] (3 mg/kg, sodium salt) is reported as 41.29%; in test [3] (10 mg/kg, sodium salt), 61.51%; in test [3] (30 mg/kg, sodium salt), 66.61%. The “effect for inhibition” value in test [3] (in words) is reported as “good effects”.
`COc1ccnc(C[S+]([O-])c2nc3cc(-n4cccc4)ccc3[nH]2)c1C` (stereo not shown) [Compound 17]: the “Volume (acidity, total acid output)” value was determined as 14.94 ± 3.02 μ Eq/hr in test [2] (3 mg/kg), 8.50 ± 1.30 μ Eq/hr in test [2] (10 mg/kg) and 6.06 ± 3.05 μ Eq/hr in test [2] (30 mg/kg). The “Inhibition rate, acidity” value in test [2] (3 mg/kg) is recorded as 75.02%; in test [2] (10 mg/kg) it was 85.79%; in test [2] (30 mg/kg), 89.87%. The “effect for lowering acidity” value in test [2] (in words) is on record as “good effects”. The compound further had an IC50 in test [1] of 13 µM. Moreover, the entries for the “Volume of gastric juice” value in test [3] (3 mg/kg), in test [3] (10 mg/kg) and in test [3] (30 mg/kg) were 1.31 ± 0.18 ml/100 g BW, 1.23 ± 0.20 ml/100 g BW and 1.15 ± 0.15 ml/100 g BW, respectively. The “Inhibition rate, gastric juice secretion” value was determined as 54.79% in test [3] (3 mg/kg), 57.55% in test [3] (10 mg/kg) and 60.38% in test [3] (30 mg/kg). Moreover, the “effect for inhibition” value in test [3] (in words) is on record as “good effects”.
